Assay results from patent publication US20110237436A1, “Hydrate and anhydrous crystal form of the sodium salt of 2-iodo-N-[(4-methoxy-6-methyl-1,3,5-triazin-2-yl)carbamoyl]benzenesulfonamide, process for preparation thereof and use thereof as herbicides and plant growth regulators” (BAYER CROPSCIENCE AG, priority 2010, published 2011).

Experiments:
[1] = Practical testing of suspension formulations; assay type: physicochemical; conditions: effects occur spontaneously or over a longer period
From the text: The compound of the formula (I) known, for example, from WO 2009/053058 (compound I-2 in table 1 therein) has herbicidal properties and is suitable for the production of crop protection compositions which can be employed for weed control. […] User-friendly administration forms are, for example, suspension formulations or solid formulations in which the compound of the formula (I) is present in finely ground, solid form. […] There may, for example, be precipitation, crystal growth or solidification, such that the suspension formulation becomes unusable. These effects can occur spontaneously or over a longer period and cannot be foreseen.

[2] = Stability tests: storage of oil dispersions of the active ingredient; assay type: physicochemical
From the text: The oil dispersions described were produced analogously to DE 19951427.

[3] = in the course of production of oil dispersions or storage at room temperature, within hours or a few days
[4] = oil dispersion produced analogously to DE 19951427, storage at different temperatures for several weeks

| Compound | physical stability of suspension formulations [1] | change in viscosity of the oil dispersions [2, 3] | precipitation or crystallization of the active ingredient in the oil dispersion [2, 3] | change in the viscosity of the oil dispersions [2, 4] | signs of precipitation or crystallization of the active ingredient in the oil dispersion [2, 4] |
| --- | --- | --- | --- | --- | --- |
| COc1nc(C)nc(NC(=O)[N-]S(=O)(=O)c2ccccc2I)n1.[Na+] [amorphous sodium salt, sodium salt of 2-iodo-N-[(4-methoxy-6-methyl-1,3,5-triazin-2-yl)carbamoyl]benzenesulfonamide] | physically unstable formulations | significant rises in viscosity, up to and including complete solidification | precipitation or crystallization of the active ingredient |  |  |
| COc1nc(C)nc(NC(=O)[N-]S(=O)(=O)c2ccccc2I)n1.[Na+] [hydrate, hydrate of the sodium salt of 2-iodo-N-[(4-methoxy-6-methyl-1,3,5-triazin-2-yl)carbamoyl]benzenesulfonamide] |  |  |  | Nor was any change found in the viscosity | did not exhibit any signs of precipitation or crystallization of the active ingredient |
